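1) Cells in 96-well plates. 2) Compound, 48 h, 5 concentrations. 3) Linear interpolation between surrounding doses. 4) Unreached endpoint = highest concentration. At the TGI there is no net growth.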
Columns and labels:
Assay in all cases: inhibition of tumour cell growth, NCI panel, 48 h
786-0 renal = test system: 786-0 renal
A498 renal = test system: A498 renal
A549 NSCLC = test system: A549 NSCLC
ACHN renal = test system: ACHN renal
BT-549 breast = test system: BT-549 breast
CAKI-1 renal = test system: CAKI-1 renal
CCRF-CEM leukemia = test system: CCRF-CEM leukemia
COLO 205 colon = test system: COLO 205 colon
DU-145 prostate = test system: DU-145 prostate
EKVX NSCLC = test system: EKVX NSCLC
HCC-2998 colon = test system: HCC-2998 colon
HCT-116 colon = test system: HCT-116 colon
HCT-15 colon = test system: HCT-15 colon
HL-60(TB) leukemia = test system: HL-60(TB) leukemia
HOP-62 NSCLC = test system: HOP-62 NSCLC
HOP-92 NSCLC = test system: HOP-92 NSCLC
HS 578T breast = test system: HS 578T breast
HT29 colon = test system: HT29 colon
IGROV1 ovarian = test system: IGROV1 ovarian
KM12 colon = test system: KM12 colon
LOX IMVI melanoma = test system: LOX IMVI melanoma
M14 melanoma = test system: M14 melanoma
MALME-3M melanoma = test system: MALME-3M melanoma
MCF7 breast = test system: MCF7 breast
MDA-MB-231 breast = test system: MDA-MB-231 breast
MDA-MB-435 = test system: MDA-MB-435
MDA-N = test system: MDA-N
MOLT-4 leukemia = test system: MOLT-4 leukemia
NCI-H226 lung = test system: NCI-H226 lung
NCI-H23 lung = test system: NCI-H23 lung
NCI-H460 lung = test system: NCI-H460 lung
NCI-H522 lung = test system: NCI-H522 lung
NCI/ADR-RES ovarian = test system: NCI/ADR-RES ovarian
OVCAR-3 ovarian = test system: OVCAR-3 ovarian
OVCAR-4 ovarian = test system: OVCAR-4 ovarian
OVCAR-5 ovarian = test system: OVCAR-5 ovarian
OVCAR-8 ovarian = test system: OVCAR-8 ovarian
PC-3 prostate = test system: PC-3 prostate
RPMI-8226 leukemia = test system: RPMI-8226 leukemia
RXF 393 renal = test system: RXF 393 renal
SF-268 CNS = test system: SF-268 CNS
SF-295 CNS = test system: SF-295 CNS
SF-539 CNS = test system: SF-539 CNS
SK-MEL-2 melanoma = test system: SK-MEL-2 melanoma
SK-MEL-28 melanoma = test system: SK-MEL-28 melanoma
SK-MEL-5 melanoma = test system: SK-MEL-5 melanoma
SK-OV-3 ovarian = test system: SK-OV-3 ovarian
SN12C renal = test system: SN12C renal
SNB-19 CNS = test system: SNB-19 CNS
SNB-75 CNS = test system: SNB-75 CNS
SR leukemia = test system: SR leukemia
SW-620 colon = test system: SW-620 colon
T-47D breast = test system: T-47D breast
TK-10 renal = test system: TK-10 renal
U251 CNS = test system: U251 CNS
UACC-257 melanoma = test system: UACC-257 melanoma
UACC-62 melanoma = test system: UACC-62 melanoma
UO-31 renal = test system: UO-31 renal
K-562 leukemia = test system: K-562 leukemia

Cc1ccc(/C=N/Nc2ccccn2)s1
TGI (786-0 renal): > 100 µM
TGI (A498 renal): > 100 µM
TGI (A549 NSCLC): > 100 µM
TGI (ACHN renal): > 100 µM
TGI (BT-549 breast): > 100 µM
TGI (CAKI-1 renal): > 100 µM
TGI (CCRF-CEM leukemia): > 100 µM
TGI (COLO 205 colon): > 100 µM
TGI (DU-145 prostate): > 100 µM
TGI (EKVX NSCLC): > 100 µM
TGI (HCC-2998 colon): > 100 µM
TGI (HCT-116 colon): > 100 µM
TGI (HCT-15 colon): > 100 µM
TGI (HL-60(TB) leukemia): > 100 µM
TGI (HOP-62 NSCLC): > 100 µM
TGI (HOP-92 NSCLC): > 100 µM
TGI (HS 578T breast): > 100 µM
TGI (HT29 colon): > 100 µM
TGI (IGROV1 ovarian): > 100 µM
TGI (KM12 colon): > 100 µM
TGI (LOX IMVI melanoma): > 100 µM
TGI (M14 melanoma): > 100 µM
TGI (MALME-3M melanoma): > 100 µM
TGI (MCF7 breast): > 100 µM
TGI (MDA-MB-231 breast): > 100 µM
TGI (MDA-MB-435): > 100 µM
TGI (MDA-N): > 100 µM
TGI (MOLT-4 leukemia): > 100 µM
TGI (NCI-H226 lung): > 100 µM
TGI (NCI-H23 lung): > 100 µM
TGI (NCI-H460 lung): > 100 µM
TGI (NCI-H522 lung): > 100 µM
TGI (NCI/ADR-RES ovarian): > 100 µM
TGI (OVCAR-3 ovarian): > 100 µM
TGI (OVCAR-4 ovarian): > 100 µM
TGI (OVCAR-5 ovarian): > 100 µM
TGI (OVCAR-8 ovarian): > 100 µM
TGI (PC-3 prostate): > 100 µM
TGI (RPMI-8226 leukemia): > 100 µM
TGI (RXF 393 renal): > 100 µM
TGI (SF-268 CNS): > 100 µM
TGI (SF-295 CNS): > 100 µM
TGI (SF-539 CNS): > 100 µM
TGI (SK-MEL-2 melanoma): > 100 µM
TGI (SK-MEL-28 melanoma): > 100 µM
TGI (SK-MEL-5 melanoma): > 100 µM
TGI (SK-OV-3 ovarian): > 100 µM
TGI (SN12C renal): > 100 µM
TGI (SNB-19 CNS): > 100 µM
TGI (SNB-75 CNS): > 100 µM
TGI (SR leukemia): > 100 µM
TGI (SW-620 colon): > 100 µM
TGI (T-47D breast): > 100 µM
TGI (TK-10 renal): > 31.6 µM
TGI (U251 CNS): > 100 µM
TGI (UACC-257 melanoma): > 100 µM
TGI (UACC-62 melanoma): > 100 µM
TGI (UO-31 renal): > 100 µM

Cc1c(-c2ccccc2)c(C#N)c2nnn(-c3ccc([N+](=O)[O-])cc3)c(=O)n12
TGI (786-0 renal): 18.4 µM
TGI (A498 renal): 49 µM
TGI (ACHN renal): > 100 µM
TGI (BT-549 breast): 69.9 µM
TGI (CAKI-1 renal): > 100 µM
TGI (CCRF-CEM leukemia): 58.2 µM
TGI (COLO 205 colon): 40.6 µM
TGI (DU-145 prostate): 23.2 µM
TGI (EKVX NSCLC): 23.8 µM
TGI (HCC-2998 colon): > 100 µM
TGI (HCT-116 colon): > 100 µM
TGI (HCT-15 colon): > 100 µM
TGI (HL-60(TB) leukemia): 13.9 µM
TGI (HOP-62 NSCLC): 45 µM
TGI (HOP-92 NSCLC): 45.4 µM
TGI (HS 578T breast): > 100 µM
TGI (HT29 colon): 75.3 µM
TGI (IGROV1 ovarian): 25.3 µM
TGI (K-562 leukemia): > 100 µM
TGI (KM12 colon): > 100 µM
TGI (LOX IMVI melanoma): 42.8 µM
TGI (MALME-3M melanoma): > 100 µM
TGI (MCF7 breast): 68.7 µM
TGI (MDA-MB-231 breast): 27.2 µM
TGI (MDA-MB-435): > 100 µM
TGI (MDA-N): > 100 µM
TGI (NCI-H226 lung): 34 µM
TGI (NCI-H23 lung): 86.5 µM
TGI (NCI-H460 lung): > 100 µM
TGI (NCI-H522 lung): 33 µM
TGI (NCI/ADR-RES ovarian): 64.7 µM
TGI (OVCAR-3 ovarian): 39.8 µM
TGI (OVCAR-4 ovarian): 38.2 µM
TGI (OVCAR-5 ovarian): 95.4 µM
TGI (OVCAR-8 ovarian): 23.6 µM
TGI (PC-3 prostate): 9.54 µM
TGI (RPMI-8226 leukemia): > 100 µM
TGI (RXF 393 renal): 48.2 µM
TGI (SF-268 CNS): 45.3 µM
TGI (SF-295 CNS): 74.9 µM
TGI (SF-539 CNS): 27 µM
TGI (SK-MEL-2 melanoma): 28.6 µM
TGI (SK-MEL-28 melanoma): > 100 µM
TGI (SK-MEL-5 melanoma): > 100 µM
TGI (SK-OV-3 ovarian): > 100 µM
TGI (SN12C renal): 69.2 µM
TGI (SNB-75 CNS): 44.1 µM
TGI (SR leukemia): > 100 µM
TGI (SW-620 colon): > 100 µM
TGI (T-47D breast): > 100 µM
TGI (TK-10 renal): 90 µM
TGI (U251 CNS): 21.5 µM
TGI (UACC-257 melanoma): > 100 µM
TGI (UACC-62 melanoma): > 100 µM

Reference: PubChem BioAssay (NCI)
